{"source": "patent US20130281311A1", "about": "“SPECIFIC BIOMARKER FOR IDENTIFICATON OF EXPOSURE TO PROPIONALDEHYDE AND THE METHOD OF IDENTIFICATION USING THE SAME” (KOREA INSTITUTE OF SCIENCE AND TECHNOLOGY, priority 2012, published 2013)", "key": {"[1]": {"system": "AGT (angiotensinogen; NM_000029)", "assay": "Oligo microarray gene expression in A549 cells, AGT", "format": "cell-based, human", "conditions": "A549, 48 hours at the concentration of Example 1-2, Cy5/Cy3 ratio", "description": "(§1) A549 cells were distributed in 6-well plate at the density of 25×10^4 cells/ml, to which propionaldehyde was treated for 48 hours at the concentration determined in Example <1-2>. Total RNA was extracted from the cells by using trizol reagent according to the manufacturer's protocol (Invitrogen life technologies, USA), followed by purification by using RNease mini kit (Qiagen, USA). Genomic DNA was eliminated by using RNase-free DNase set (Qiagen, USA) during the RNA purification. The amount of total RNA was measured with spectrophotometer, and the concentration was confirmed by ND-1000 Spectrophotometer (Thermo Fisher Scientific Inc., USA) and Agilent 2100 Bioanalyzer (Agilent).\n(§2) For oligomicroarray analysis, cDNA was synthesized by using the total RNA obtained from the experimental group treated with propionaldehyde prepared in Example <2-1>. 30 μg of the obtained total RNA and 2 μg of oligo (dT) primer (1 μg/μl) were mixed together, followed by reaction at 65° C. for 10 minutes, which was transferred into ice for annealing. […]\n(§3) Hybridization images on the slide were scanned with Agilent C scanner (Agilent technologies, CA, USA). […] To obtain gene expression rate, the scanned images were analyzed by using Agilent Feature Extraction 10.7.3.1 (Agilent technologies, CA, USA). […]"}, "[2]": {"system": "SECTM1 (secreted and transmembrane 1; NM_003004)", "assay": "Oligo microarray gene expression in A549 cells, SECTM1", "format": "cell-based, human", "conditions": "A549, 48 hours at the concentration of Example 1-2, Cy5/Cy3 ratio", "description": "as §1, §2, §3"}, "[3]": {"system": "LPAR1 (lysophosphatidic acid receptor 1; NM_057159)", "assay": "Oligo microarray gene expression in A549 cells, LPAR1", "format": "cell-based, human", "conditions": "A549, 48 hours at the concentration of Example 1-2, Cy5/Cy3 ratio", "description": "as §1, §2, §3"}, "[4]": {"assay": "Cytotoxicity test (MTT assay)", "format": "cell-based, human", "conditions": "human, A549 cells; A549 cell line, 48 hours, MTT, OD540; read-out: IC20 (the concentration showing 20% survival rate)", "description": "(§4) A549 cells (Korean Cell Line Bank), the human lung cancer tissue derived cell line, were cultured in 100 mm dish containing RPMI (Gibro-BRL, USA) supplemented with 10% FBS until the confluency reached 80%. The present inventors selected propionaldehyde, one of aldehydes among many volatile organic compounds exposed in environment, as a target material based on the previous studies and reports, and then dissolved in DMSO (dimethyl sulfoxide). The concentration of vehicle was up to 0.1% in every experiment.\n(§5) MTT assay was performed with A549 cell line according to the method of Mossman, et al (J. Immunol. Methods, 65, 55-63, 1983).\n(§6) Particularly, the cells were distributed in 24-well plate (3.5×10^4 cells/well) containing RPMI (Gibro-BRL, USA) and then treated with propionaldehyde dissolved in DMSO. 48 hours later, 5 mg/ml of MTT (3-4,5-dimethylthiazol-2,5-diphenyltetra zolium bromide) was added thereto, followed by culture at 37° C. for 3 hours. Then, the medium was discarded and the formed formazan crystal was dissolved in […] of DMSO, which was aliquoted in 96-well plate. OD540 was measured."}, "A549 cells [5]": {"system": "A549 cells", "assay": "Cytotoxicity test (MTT assay)", "format": "cell-based, human", "conditions": "A549, result in words", "description": "as §4, §5, §6"}, "[6]": {"system": "AGT, LPAR1, SECTM1, TNFSF10, HMOX1", "assay": "Quantitative real-time RT-PCR of the 5 marker genes", "format": "cell-based, human", "conditions": "endogenous control MDH1; result in words", "description": "At that time, to confirm the propionaldehyde specific expression changes, the said genes were investigated with their expression patterns using the additional 5 aldehydes listed in Table 3.\nParticularly, cDNA was synthesized by performing reverse transcription by using oligo dT primer and Superscript kit (Omniscipt™ kit, Qiagen, Co., USA). 0.2 μl of the synthesized cDNA was mixed with 3.8 μl of water, 0.5 μl of sense primer, 0.5 μl of anti-sense primer, and 5 μl of SYBR Green I staining supermix (Bio-rad, USA), which was loaded in PCR tube, followed by reaction in My IQ real-time PCR machine designed to execute reaction as follows: step 1, 95° C. for 3 minutes; step 2 (45 cycles), step 2-1, 95° C. for 10 seconds; step 2-2, 57° C. for 45 seconds; step 3, 95° C. for 1 minute; step 4, 55° C. for 1 minute; step 5 (80 cycles), 55° C. for 10 seconds. The PCR product was stained with SYBR Green I (Bio-rad, USA) to quantify thereof. SYBR Green I staining is the method taking advantage of intercalating with double-stranded DNA, and thus the more double-stranded DNA is produced, the stronger the fluorescence intensity is obtained during PCR. Primers for the target gene used for PCR and the endogenous control (MDH1) were added to SYBR Green master-mix, followed by PCR. […] Then, PCR was performed and the result was analyzed by using quantitative software."}, "[7]": {"system": "TNFSF10 (tumor necrosis factor (ligand) superfamily, member 10; NM_003810)", "assay": "Oligo microarray gene expression in A549 cells, TNFSF10", "format": "cell-based, human", "conditions": "A549, 48 hours at the concentration of Example 1-2, Cy5/Cy3 ratio", "description": "as §1, §2, §3"}, "A549 cells [8]": {"system": "A549 cells", "assay": "Human whole genome oligo microarray, genome-wide expression change", "format": "cell-based", "conditions": "A549, 48 hours", "description": "In a preferred embodiment of the present invention, to screen a biomarker for the identification of propionaldehyde specific exposure, the present inventors treated propionaldehyde to the human lung cancer tissue derived cell line A549 and then investigated cytotoxicity therein. […] Based on the result of that experiment, the concentration of propionaldehyde was determined. Propionaldehyde was treated to the human lung cancer tissue derived cell line at the determined concentration. From the cell line treated with propionaldehyde, mRNA was extracted, followed by synthesis of cDNA which was labeled with fluorescein (Cy5). The control not treated with propionaldehyde was labeled with Cy3. The fluorescein-labeled cDNA was hybridized with 8×60 k oligomicroarray chip [Human whole genome oligo microarray (Agilent, USA)], followed by scanning fluorescence image to analyze gene expression patterns (see FIG. 2). […] 5 kinds of genes whose expressions were increased or decreased specifically by propionaldehyde alone among […] (butylaldehyde, valeradehyde, hexanal, heptanal, octanal, and propionaldehyde) were selected by using real-time quantitative PCR (see FIG. 3, Table 3, and Table 4). […]\nA549 cells were distributed in 6-well plate at the density of 25×10^4 cells/ml, to which propionaldehyde was treated for 48 hours at the concentration determined in Example <1-2>. […]"}, "[9]": {"system": "HMOX1 (heme oxygenase 1; NM_002133)", "assay": "Oligo microarray gene expression in A549 cells, HMOX1", "format": "cell-based, human", "conditions": "A549, 48 hours at the concentration of Example 1-2, Cy5/Cy3 ratio", "description": "as §1, §2, §3"}}}
{"smiles": "CCC=O", "note": "[propionaldehyde]", "values": [{"measurement": "Median ratio of microarray by propionaldehyde exposure, AGT", "setting": "[1]", "result": 0.55}, {"measurement": "Median ratio of microarray by propionaldehyde exposure, SECTM1", "setting": "[2]", "result": 0.63}, {"measurement": "Median ratio of microarray by propionaldehyde exposure, LPAR1", "setting": "[3]", "result": 0.62}, {"measurement": "IC20 at 48 h", "setting": "[4]", "result": 2500, "unit": "µM"}, {"measurement": "cytotoxicity in the human lung cancer tissue derived cell line", "setting": "A549 cells [5]", "result": "had cytotoxicity"}, {"measurement": "expression patterns of the 5 genes by real-time RT-PCR", "setting": "[6]", "result": "very similar to the results of microarray chip analysis"}, {"measurement": "Median ratio of microarray by propionaldehyde exposure, TNFSF10", "setting": "[7]", "result": 0.65}, {"measurement": "genes showing at least 1.5 fold higher expression (Cy5/Cy3 ratio)", "setting": "A549 cells [8]; 900 genes out of 42,405", "result": 2.12, "unit": "%"}, {"measurement": "genes showing lower expression (Cy5/Cy3 ratio lower than 0.66)", "setting": "A549 cells [8]; 1,522 genes out of 42,405", "result": 3.59, "unit": "%"}, {"measurement": "Median ratio of microarray by propionaldehyde exposure, HMOX1", "setting": "[9]", "result": 1.52}]}
